# Experimental data from patent US11311503B1, “Sterile aqueous choline salt compositions” (Protara Therapeutics, Inc., priority 2021, dated 2022).
# Like-named read-outs stand apart in the source and are kept apart here.
# What was measured:
# [1] = three months post production
# [2] = three months post production; remark: listed apart in the source
# [3] = Acid 1: 1 N HCl, about 72 hours
# [4] = Acid 2: 0.1 N HCl, about 72 hours
# [5] = Base 1: 1 N NaOH, about 72 hours
# [6] = Base 2: 0.1 N NaOH, about 72 hours
# [7] = Heat (dry): 80°, about 72 hours
# [8] = Heat (wet): 80°, about 72 hours
# [9] = Oxidation: 5% H2O2, about 24 hours
# 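For % Impurities RRT 1.42/1.44 in this document: Stress-treated samples analysed together with a control by the test method, run time lengthened to catch possible late-eluting degradation peaks.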
# 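For % Total Impurities in this document: Stress-treated samples analysed together with a control by the test method, run time lengthened to catch possible late-eluting degradation peaks.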
# 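For Assay % Relative to control in this document: Stress-treated samples analysed together with a control by the test method, run time lengthened to catch possible late-eluting degradation peaks.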
# 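For Mass Balance % Relative to Control in this document: Stress-treated samples analysed together with a control by the test method, run time lengthened to catch possible late-eluting degradation peaks.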
smiles,measurement,setting,value
C[N+](C)(C)CCO.[Cl-] [Choline chloride],Bacterial Endotoxins,[1],<0.1 EU/mg
same,% Impurities RRT 1.42/1.44,[3],0.14%
same,% Total Impurities,[3],0.14%
same,Assay % Relative to control,[3],100.4%
same,Mass Balance % Relative to Control,[3],100.5%
same,Mass Balance Assay + Impurities,[3],99.24
same,Assay % LC,"Acid 1: 1 N HCl, about 72 hours, ambient",99.1 % LC
same,Assay % Relative to control,[4],100.2%
same,Mass Balance % Relative to Control,[4],100.2%
same,Mass Balance Assay + Impurities,[4],98.9
same,Assay % LC,"Acid 2: 0.1 N HCl, about 72 hours, ambient",98.9 % LC
same,% Impurities RRT 1.42/1.44,[5],0.14%
same,% Total Impurities,[5],0.14%
same,Assay % Relative to control,[5],100.6%
same,Mass Balance % Relative to Control,[5],100.7%
same,Mass Balance Assay + Impurities,[5],99.44
same,Assay % LC,"Base 1: 1 N NaOH, about 72 hours, ambient",99.3 % LC
same,Assay % Relative to control,[6],102.1%
same,Mass Balance % Relative to Control,[6],102.1%
same,Mass Balance Assay + Impurities,[6],100.8
same,Assay % LC,"Base 2: 0.1 N NaOH, about 72 hours, ambient",100.8 % LC
same,Assay % LC,Control: No treatment,98.7 % LC
same,Mass Balance Assay + Impurities,Control: No treatment,98.7
same,Assay % LC,Heat (dry): 80° for about 72 hours,99.2 % LC
same,Assay % Relative to control,[7],100.5%
same,Mass Balance % Relative to Control,[7],100.5%
same,Mass Balance Assay + Impurities,[7],99.2
same,Assay % Relative to control,[8],100.7%
same,Mass Balance % Relative to Control,[8],100.7%
same,Mass Balance Assay + Impurities,[8],99.4
same,Assay % LC,"Heat (wet): in the presence of water, 80° for about 72 hours",99.4 % LC
same,Assay % LC,"Light (dry): about 7.2 kilolux Visible and 1 W/m^2 UV, about 120 hours",99.7 % LC
same,Assay % Relative to control,Light (dry): about 120 hours,101.0%
same,Mass Balance % Relative to Control,Light (dry): about 120 hours,101.0%
same,Mass Balance Assay + Impurities,Light (dry): about 120 hours,99.7
same,Assay % Relative to control,Light (wet): about 120 hours,100.2%
same,Mass Balance % Relative to Control,Light (wet): about 120 hours,100.2%
same,Mass Balance Assay + Impurities,Light (wet): about 120 hours,98.9
same,Assay % LC,"Light (wet): in the presence of water, about 7.2 kilolux Visible and 1 W/m^2 UV, about 120 hours",98.9 % LC
same,% Total Impurities,[9],0.55%
same,Assay % Relative to control,[9],100.7%
same,Mass Balance % Relative to Control,[9],101.3%
same,Mass Balance Assay + Impurities,[9],99.95
same,Assay % LC,"Oxidation: 5% H2O2, about 24 hours, ambient",99.4 % LC
same,stability / degradation at all stressed conditions,"acid, base, oxidation, light, heat, maximum stress conditions",no significant degradation
same,pH (1 in 10 solution),[2],5.9
